*1 amine or outer side, *2 acyl side, *3 side chain or, on linkers, in order; H or OH if unused. Where a SMILES comes first, the peptide text is derived from it. Side-chain parts run from the residue outwards. [ ]: non-standard residue; d: D form. The star is where a group is joined. X17 = CCCCCCCCCCCCCCC(=O)N[C@@H](CCC(=O)N[C@@H](CCC(=O)N[C@@H](CCC(=O)NCCCOCCOCCOCCCNC(=O)CCC(=O)NCCCOCCOCCOCCCNC(=O)CCC(=O)NCCCOCCOCCOCCCN*)C(=O)O)C(=O)O)C(=O)O; PEG12 = NCCOCCOCCOCCOCCOCCOCCOCCOCCOCCOCCOCCOCCC(=O)O; γGlu = O=C(O)[C@H](CCC(=O)[*:2])N[*:1]; 1Nal = N[C@@H](Cc1cccc2ccccc12)C(=O)O; Stearoyl = CCCCCCCCCCCCCCCCCC(=O)*; Palmitoyl = CCCCCCCCCCCCCCCC(=O)*; Suc = O=C(CCC(=O)[*:2])[*:1]; αMeK = C[C@](N)(CCCCN)C(=O)O; Nle = CCCC[C@H](N)C(=O)O; AEEA = NCCOCCOCC(=O)O; Aib = CC(C)(N)C(=O)O
Biological target: T1, RXFP1 (Homo sapiens, UniProt Q9HBX9)
T1 construct: OVCAR5 cells expressing endogenous RXFP1; endogenous in cells; host or cells: OVCAR5 cells
T1 sequence (Q9HBX9 1-757): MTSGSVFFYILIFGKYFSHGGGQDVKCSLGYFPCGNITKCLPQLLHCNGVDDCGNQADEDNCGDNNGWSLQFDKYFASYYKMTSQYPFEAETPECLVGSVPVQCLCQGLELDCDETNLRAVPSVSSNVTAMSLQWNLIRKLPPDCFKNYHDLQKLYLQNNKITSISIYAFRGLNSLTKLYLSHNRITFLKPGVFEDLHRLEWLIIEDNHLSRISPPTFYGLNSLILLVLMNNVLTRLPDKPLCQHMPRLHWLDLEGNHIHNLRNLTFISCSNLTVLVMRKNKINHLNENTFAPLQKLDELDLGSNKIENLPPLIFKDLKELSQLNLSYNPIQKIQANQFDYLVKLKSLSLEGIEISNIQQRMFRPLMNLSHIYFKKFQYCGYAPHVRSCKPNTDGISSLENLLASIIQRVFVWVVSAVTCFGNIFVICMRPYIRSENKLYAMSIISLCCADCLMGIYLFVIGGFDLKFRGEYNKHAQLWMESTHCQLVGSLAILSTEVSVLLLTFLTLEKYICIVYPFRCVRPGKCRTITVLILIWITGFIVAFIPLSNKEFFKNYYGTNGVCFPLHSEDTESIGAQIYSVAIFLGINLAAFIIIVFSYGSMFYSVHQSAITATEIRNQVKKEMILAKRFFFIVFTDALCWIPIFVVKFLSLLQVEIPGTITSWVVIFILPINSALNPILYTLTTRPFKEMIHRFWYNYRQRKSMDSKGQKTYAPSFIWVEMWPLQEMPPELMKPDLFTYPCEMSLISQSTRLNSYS
Assay: OVCAR5 cAMP assay (HTRF), RXFP1 agonist activity
Type: cell-based
Conditions: for Emax: OVCAR-5, maximal cAMP relative to H2-relaxin maximum (100%), read-out: EMax, OVCAR 5 cells (cAMP); for EC50: OVCAR5 cells, cAMP HTRF, read-out: EC50 (nM), OVCAR 5 cells (cAMP)
How it was run: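 OVCAR5 cells (endogenous RXFP1) pretreated 40 min at 37° C with 1 mM IBMX, then exposed to peptides in serum-free medium for 30 min at 37° C. Lysate cAMP read by HTRF; EC50 from variable-slope sigmoidal fit; Emax as % of H2-relaxin maximal cAMP in same run.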

Row | Compound | Emax [%] | EC50 [nM]
1 | CCCCCCCCCCCCCCCCCC(=O)N[C@@H](CCC(=O)N[C@@H](CCC(=O)N[C@@H](CCC(=O)NCCOCCOCC(=O)NCCOCCOCC(=O)NCCOCCOCC(=O)NCCCC[C@H](NC(=O)[C@H](CCCCNC(C)=O)NC(=O)[C@H](CCCCN)NC(=O)[C@H](CCCNC(=N)N)NC(=O)C(C)(C)NC(=O)[C@H](CO)NC(=O)[C@H](Cc1cccc2ccccc12)NC(=O)[C@@H](NC(=O)[C@H](CO)NC(=O)[C@H](CCCC)NC(=O)CNC(=O)[C@H](CCC(=O)O)NC(=O)C(C)(C)NC(=O)C(C)(C)NC(=O)[C@@H](NC(=O)[C@H](CCCCNC(C)=O)NC(=O)C(C)(C)NC(=O)[C@H](CCCNC(=N)N)NC(=O)[C@@H](NC(=O)[C@H](CCCCN)NC(=O)[C@H](CCC(=O)O)NC(=O)[C@H](CCCNC(=N)N)NC(=O)CNC(=O)[C@H](CCC(=O)O)NC(=O)[C@H](CC(C)C)NC(C)=O)C(C)C)[C@@H](C)CC)[C@@H](C)O)C(N)=O)C(=O)O)C(=O)O)C(=O)O [compound 85] (Ac-LEGREKVR[Aib]K(Ac)I[Aib][Aib]EG[Nle]ST[1Nal]S[Aib]RKK(Ac)K([AEEA-AEEA-AEEA-γGlu-γGlu-γGlu-Stearoyl])-NH2) | 75 | –
2 | 174 (Ac-LEGREKVRAQI[Aib][Aib]EG[Nle]STWS[Aib]RKKK-NH2; not fully specified (residue 25); printed as Ac-L-E-G-R-E-K-V-R-A-Q-I-Aib-Aib-E-G-Nle-S-T-W-S-Aib-R-K-K-K(PEG2-PEG2-PEG2-gE-gE-gE-Stea)-NH2) [compound 174] | – | 0.41
3 | CCCCCCCCCCCCCCCC(=O)N[C@@H](CCC(=O)NCCCC[C@H](NC(=O)CC[C@H](NC(=O)CC[C@H](NC(=O)CC[C@H](NC(=O)COCCOCCNC(=O)COCCOCCNC(=O)COCCOCCNC(=O)COCCOCCNC(=O)[C@H](CCCCN)NC(=O)[C@H](CCCCN)NC(=O)[C@H](CCCCN)NC(=O)[C@H](CCCNC(=N)N)NC(=O)C(C)(C)NC(=O)[C@H](CO)NC(=O)[C@H](Cc1c[nH]c2ccccc12)NC(=O)[C@@H](NC(=O)[C@H](CO)NC(=O)[C@H](CCCC)NC(=O)CNC(=O)[C@H](CCC(=O)O)NC(=O)C(C)(C)NC(=O)C(C)(C)NC(=O)[C@@H](NC(=O)[C@H](CCC(N)=O)NC(=O)[C@H](C)NC(=O)[C@H](CCCNC(=N)N)NC(=O)[C@@H](NC(=O)[C@H](CCCCN)NC(=O)[C@H](CCC(=O)O)NC(=O)[C@H](CCCNC(=N)N)NC(=O)CNC(=O)[C@H](CCC(=O)O)NC(=O)[C@H](CC(C)C)NC(C)=O)C(C)C)[C@@H](C)CC)[C@@H](C)O)C(=O)O)C(=O)O)C(=O)O)C(N)=O)C(=O)O [compound 108] (Ac-LEGREKVRAQI[Aib][Aib]EG[Nle]STWS[Aib]RKKK[AEEA][AEEA][AEEA][AEEA][γGlu][γGlu][γGlu]K([γGlu-Palmitoyl])-NH2) | 94 | 0.15
4 | CCCCCCCCCCCCCCC(=O)N[C@@H](CCC(=O)N[C@@H](CCC(=O)N[C@@H](CCC(=O)NCCCOCCOCCOCCCNC(=O)CCC(=O)NCCCOCCOCCOCCCNC(=O)CCC(=O)NCCCOCCOCCOCCCNC(=O)CCC(=O)NCCCC[C@H](NC(=O)[C@H](CCCCNC(C)=O)NC(=O)[C@H](C)NC(=O)[C@H](CCCNC(=N)N)NC(=O)[C@](C)(CCCCN)NC(=O)[C@H](CO)NC(=O)[C@H](Cc1ccccc1)NC(=O)[C@@H](NC(=O)[C@H](CO)NC(=O)[C@H](CCC(N)=O)NC(=O)CNC(=O)[C@H](CCC(=O)O)NC(=O)C(C)(C)NC(=O)C(C)(C)NC(=O)[C@@H](NC(=O)[C@H](CCCCNC(C)=O)NC(=O)[C@H](C)NC(=O)[C@H](CCCNC(=N)N)NC(=O)[C@@H](NC(=O)[C@H](CCCCN)NC(=O)[C@H](CCC(=O)O)NC(=O)[C@H](CCCNC(=N)N)NC(=O)CNC(=O)[C@H](CCC(=O)O)NC(=O)[C@H](CC(C)C)NC(C)=O)C(C)C)[C@@H](C)CC)[C@@H](C)O)C(N)=O)C(=O)O)C(=O)O)C(=O)O [compound 189] (Ac-LEGREKVRAK(Ac)I[Aib][Aib]EGQSTFS[αMeK]RAK(Ac)K([Suc-X17])-NH2) | 100 | –
5 | CCCCCCCCCCCCCCCCCC(=O)N[C@@H](CCC(=O)N[C@@H](CCC(=O)N[C@@H](CCC(=O)N[C@@H](CCC(=O)NCCOCCOCC(=O)NCCOCCOCC(=O)NCCOCCOCC(=O)NCCOCCOCC(=O)NCCCC[C@H](NC(=O)[C@H](CCCCNC(C)=O)NC(=O)[C@H](CCCCN)NC(=O)[C@H](CCCNC(=N)N)NC(=O)C(C)(C)NC(=O)[C@H](CO)NC(=O)[C@H](Cc1c[nH]c2ccccc12)NC(=O)[C@@H](NC(=O)[C@H](CO)NC(=O)[C@H](CCC(N)=O)NC(=O)CNC(=O)[C@H](CCC(=O)O)NC(=O)C(C)(C)NC(=O)C(C)(C)NC(=O)[C@@H](NC(=O)[C@H](CCCCNC(C)=O)NC(=O)[C@H](C)NC(=O)[C@H](CCCNC(=N)N)NC(=O)[C@@H](NC(=O)[C@H](CCCCN)NC(=O)[C@H](CCC(=O)O)NC(=O)[C@H](CCCNC(=N)N)NC(=O)CNC(=O)[C@H](CCC(=O)O)NC(=O)[C@H](CC(C)C)NC(C)=O)C(C)C)[C@@H](C)CC)[C@@H](C)O)C(N)=O)C(=O)O)C(=O)O)C(=O)O)C(=O)O [compound 180] (Ac-LEGREKVRAK(Ac)I[Aib][Aib]EGQSTWS[Aib]RKK(Ac)K([AEEA-AEEA-AEEA-AEEA-γGlu-γGlu-γGlu-γGlu-Stearoyl])-NH2) | 84 | –
6 | CCCCCCCCCCCCCCCCCC(=O)N[C@@H](CCC(=O)N[C@@H](CCC(=O)N[C@@H](CCC(=O)NCCOCCOCC(=O)NCCOCCOCC(=O)NCCOCCOCC(=O)NCCCC[C@H](NC(=O)[C@H](CCCCNC(C)=O)NC(=O)[C@H](CCCCN)NC(=O)[C@H](CCCNC(=N)N)NC(=O)C(C)(C)NC(=O)[C@H](CO)NC(=O)[C@H](Cc1cccc2ccccc12)NC(=O)[C@@H](NC(=O)[C@H](CO)NC(=O)[C@H](CCCC)NC(=O)CNC(=O)[C@H](CCC(=O)O)NC(=O)C(C)(C)NC(=O)C(C)(C)NC(=O)[C@@H](NC(=O)[C@H](CCCCNC(C)=O)NC(=O)[C@H](C)NC(=O)[C@H](CCCNC(=N)N)NC(=O)[C@@H](NC(=O)[C@H](CCCCN)NC(=O)[C@H](CCC(=O)O)NC(=O)[C@H](CCCNC(=N)N)NC(=O)CNC(=O)[C@H](CCC(=O)O)NC(=O)[C@H](CC(C)C)NC(C)=O)C(C)C)[C@@H](C)CC)[C@@H](C)O)C(N)=O)C(=O)O)C(=O)O)C(=O)O [compound 84] (Ac-LEGREKVRAK(Ac)I[Aib][Aib]EG[Nle]ST[1Nal]S[Aib]RKK(Ac)K([AEEA-AEEA-AEEA-γGlu-γGlu-γGlu-Stearoyl])-NH2) | 76 | 0.09
7 | CCCCCCCCCCCCCCCC(=O)N[C@@H](CCC(=O)N[C@@H](CCC(=O)N[C@@H](CCC(=O)NCCCC[C@H](NC(=O)CCOCCOCCOCCOCCOCCOCCOCCOCCOCCOCCOCCOCCNC(=O)[C@H](CCCCN)NC(=O)[C@H](CCCNC(=N)N)NC(=O)C(C)(C)NC(=O)[C@H](CO)NC(=O)[C@H](Cc1cccc2ccccc12)NC(=O)[C@@H](NC(=O)[C@H](CO)NC(=O)[C@H](CCCC)NC(=O)CNC(=O)[C@H](CCC(=O)O)NC(=O)C(C)(C)NC(=O)C(C)(C)NC(=O)[C@@H](NC(=O)[C@H](CCCCNC(C)=O)NC(=O)[C@H](C)NC(=O)[C@H](CCCNC(=N)N)NC(=O)[C@@H](NC(=O)[C@H](CCCCN)NC(=O)[C@H](CCC(=O)O)NC(=O)[C@H](CCCNC(=N)N)NC(=O)CNC(=O)[C@H](CCC(=O)O)NC(=O)[C@H](CC(C)C)NC(C)=O)C(C)C)[C@@H](C)CC)[C@@H](C)O)C(N)=O)C(=O)O)C(=O)O)C(=O)O [compound 29] (Ac-LEGREKVRAK(Ac)I[Aib][Aib]EG[Nle]ST[1Nal]S[Aib]RK[PEG12]K([γGlu-γGlu-γGlu-Palmitoyl])-NH2) | 78 | –

— patent US10988523B2, “Modified lipidated Relaxin B chain peptides and their therapeutic use” (Sanofi, priority 2018, dated 2021)
